The text below walks through data of patent publication US11872202B2, “Pleuromutilin cinnamic acid ester compounds with activities against antibiotic-resistant infections” (SHAANXI UNIVERSITY OF SCIENCE AND TECHNOLOGY, priority 2021, dated 2024).

What all share (assay): MIC, micro-broth dilution method
Assay type in all cases: cell-based
In general terms: In broth dilution the organism is exposed to a series of concentrations in liquid medium.

For test [1], the system named is Staphylococcus aureus ATCC25923. On the procedure:
(§1) The minimum inhibitory concentration (MIC) of pleuromutilin cinnamate easters and their starting materials was tested by a micro-broth dilution method, with retamoline, vornimulin and tiamulin as positive controls.
(§2) The experimental strains included Gram-positive bacteria: Methicillin-sensitive Staphylococcus epidermidis ATCC12228, Staphylococcus aureus ATCC29213 and ATCC25923, and Methicillin-resistant Staphylococcus aureus ATCC33591; Gram-negative bacteria: Acinetobacter baumannii ATCC19606 and E. coli Bacillus ATCC25922 (the strains used were from the American type culture collection (ATCC)).

For test [2], the system named is Escherichia coli ATCC25922. As for the experimental part: as §1, §2
Test [3] has as its system Methicillin-resistant Staphylococcus aureus ATCC33591. As for the experimental part: as §1, §2
The subject of test [4] is Methicillin-sensitive Staphylococcus epidermidis ATCC12228. As for the experimental part:
as §1, §2

Test [5] deals with Staphylococcus aureus ATCC29213. As for the experimental part: as §1, §2
For test [6], the system named is Acinetobacter baumannii ATCC19606. On the procedure: as §1, §2
The mark [7] stands for this setting: Staphylococcus aureus ATCC25923, 37° C., 20-22 h, read-out: Minimum inhibitory concentration.
The mark [8] stands for this setting: Escherichia coli ATCC25922, 37° C., 20-22 h, read-out: Minimum inhibitory concentration.
Setting [9] is: Methicillin-resistant Staphylococcus aureus ATCC33591, 37° C., 20-22 h, read-out: Minimum inhibitory concentration.
[10] abbreviates: Methicillin-sensitive Staphylococcus epidermidis ATCC12228, 37° C., 20-22 h, read-out: Minimum inhibitory concentration.
[11] abbreviates: Staphylococcus aureus ATCC29213, 37° C., 20-22 h, read-out: Minimum inhibitory concentration.
[12] abbreviates: Acinetobacter baumannii ATCC19606, 37° C., 20-22 h, read-out: Minimum inhibitory concentration.

Structures are written as SMILES. Converted amounts (≈) assume the structure as drawn. Where two headings read alike, the source gives them in different places.

As to `C=C[C@]1(C)C[C@@H](OC(=O)COC(=O)/C=C/c2ccc(F)c(Cl)c2)[C@]2(C)[C@H](C)CC[C@]3(CCC(=O)[C@H]32)[C@@H](C)[C@@H]1O` [Compound 20, (E)-2-(((3aR,4R,5R,8S,9R,12R)-8-hydroxy-4,7,9,12-tetramethyl-3-oxo-7-vinyldecahydro-4,9a-propanocyclopenta[8]annulen-5-yl)oxy)-2-oxoethyl 3-(3-chloro-4-fluorophenyl)acrylate], the MIC is 16 µg/mL (≈ 28.5 µM) in test [1] (setting [7]); 64 µg/mL (≈ 114 µM) in test [2] (setting [8]); 64 µg/mL (≈ 114 µM) in test [3] (setting [9]); 32 µg/mL (≈ 57 µM) in test [4] (setting [10]); 32 µg/mL (≈ 57 µM) in test [5] (setting [11]); above 256 µg/mL in test [6] (setting [12]).

With `C=C[C@]1(C)C[C@@H](OC(=O)COC(=O)/C=C/c2ccc(C(F)(F)F)cc2)[C@]2(C)[C@H](C)CC[C@]3(CCC(=O)[C@H]32)[C@@H](C)[C@@H]1O` [Compound 15, (E)-2-(((3aR,4R,5R,8S,9R,12R)-8-hydroxy-4,7,9,12-tetramethyl-3-oxo-7-vinyldecahydro-4,9a-propanocyclopenta[8]annulen-5-yl)oxy)-2-oxoethyl 3-(4-(trifluoromethyl)phenyl)acrylate], the MIC was 16 µg/mL (≈ 27.7 µM) in test [1] (setting [7]); 64 µg/mL (≈ 111 µM) in test [2] (setting [8]); 128 µg/mL (≈ 222 µM) in test [3] (setting [9]); 8 µg/mL (≈ 13.9 µM) in test [4] (setting [10]); 16 µg/mL (≈ 27.7 µM) in test [5] (setting [11]); above 256 µg/mL in test [6] (setting [12]). Moreover, the “inhibitory effect compared with the three tested positive controls” value in test [4] (methicillin-sensitive Staphylococcus epidermidis, statement in words from Table 1) is recorded as “better than that of the positive controls”.

On to `C=C[C@]1(C)C[C@@H](OC(=O)COC(=O)/C=C/c2cc(Br)ccc2F)[C@]2(C)[C@H](C)CC[C@]3(CCC(=O)[C@H]32)[C@@H](C)[C@@H]1O` [Compound 9, (E)-2-(((3aR,4R,5R,8S,9R,12R)-8-hydroxy-4,7,9,12-tetramethyl-3-oxo-7-vinyldecahydro-4,9a-propanocyclopenta[8]annulen-5-yl)oxy)-2-oxoethyl 3-(5-bromo-2-fluorophenyl)acrylate], for which the MIC in test [1] (setting [7]) worked out at 16 µg/mL (≈ 26.4 µM); in test [2] (setting [8]), 64 µg/mL (≈ 106 µM); in test [3] (setting [9]) it was 64 µg/mL (≈ 106 µM); in test [4] (setting [10]), 64 µg/mL (≈ 106 µM); in test [5] (setting [11]), 32 µg/mL (≈ 52.8 µM); in test [6] (setting [12]) it was 128 µg/mL (≈ 211 µM).

With `C=C[C@]1(C)C[C@@H](OC(=O)COC(=O)/C=C/c2ccccc2C(F)(F)F)[C@]2(C)[C@H](C)CC[C@]3(CCC(=O)[C@H]32)[C@@H](C)[C@@H]1O` [Compound 21], the MIC in test [1] (setting [7]) was 32 µg/mL (≈ 55.5 µM); in test [2] (setting [8]), above 256 µg/mL; in test [3] (setting [9]), 128 µg/mL (≈ 222 µM); in test [4] (setting [10]) it was 64 µg/mL (≈ 111 µM); in test [5] (setting [11]), 64 µg/mL (≈ 111 µM); in test [6] (setting [12]), above 256 µg/mL.

As for `C=C[C@]1(C)C[C@@H](OC(=O)CSC(C)(C)CNC(=O)[C@H](N)C(C)C)[C@]2(C)[C@H](C)CC[C@]3(CCC(=O)[C@H]32)[C@@H](C)[C@@H]1O` [Valnemulin, reference compound], the MIC in test [1] (Staphylococcus aureus, ATCC25923, read-out: Minimum inhibitory concentration) was 4 µg/mL (≈ 7.08 µM); in test [2] (Escherichia coli, ATCC25922, read-out: Minimum inhibitory concentration), 16 µg/mL (≈ 28.3 µM); in test [3] (Staphylococcus aureus, ATCC33591, read-out: Minimum inhibitory concentration) it was above 256 µg/mL; in test [4] (Staphylococcus epidermidis, ATCC12228, read-out: Minimum inhibitory concentration) it was 64 µg/mL (≈ 113 µM); in test [5] (Staphylococcus aureus, ATCC29213, read-out: Minimum inhibitory concentration), 2 µg/mL (≈ 3.54 µM); in test [6] (Acinetobacter baumannii, ATCC19606, read-out: Minimum inhibitory concentration), 2 µg/mL (≈ 3.54 µM).

Take `C=C[C@]1(C)C[C@@H](OC(=O)COC(=O)/C=C/c2ccc(Cn3ccnc3)cc2)[C@]2(C)[C@H](C)CC[C@]3(CCC(=O)[C@H]32)[C@@H](C)[C@@H]1O` [Compound 17]: the MIC came out at 8 µg/mL (≈ 13.6 µM) in test [1] (setting [7]); 64 µg/mL (≈ 109 µM) in test [2] (setting [8]); 32 µg/mL (≈ 54.4 µM) in test [3] (setting [9]); 16 µg/mL (≈ 27.2 µM) in test [4] (setting [10]); 16 µg/mL (≈ 27.2 µM) in test [5] (setting [11]); 128 µg/mL (≈ 217 µM) in test [6] (setting [12]).

On to `C=C[C@]1(C)C[C@@H](OC(=O)COC(=O)/C=C/c2ccc(F)cc2)[C@]2(C)[C@H](C)CC[C@]3(CCC(=O)[C@H]32)[C@@H](C)[C@@H]1O` [Compound 11, (E)-2-(((3aR,4R,5R,8S,9R,12R)-8-hydroxy-4,7,9,12-tetramethyl-3-oxo-7-vinyldecahydro-4,9a-propanocyclopenta[8]annulen-5-yl)oxy)-2-oxoethyl 3-(4-fluorophenyl)acrylate], for which the MIC in test [1] (setting [7]) was determined as 16 µg/mL (≈ 30.4 µM); in test [2] (setting [8]) it was 128 µg/mL (≈ 243 µM); in test [3] (setting [9]), 32 µg/mL (≈ 60.8 µM); in test [4] (setting [10]), 32 µg/mL (≈ 60.8 µM); in test [5] (setting [11]) it was 32 µg/mL (≈ 60.8 µM); in test [6] (setting [12]), 128 µg/mL (≈ 243 µM).
